# Reference: patent US4521340A, “Pharmaceutically acceptable salts of the antibiotic C-19393 E5” (priority 1980, dated 1985)
# Entries after “also recorded” stand apart in the source; their conditions may differ. Structures can show the parent of a compound that is named as a salt. Where two headings read alike, the source gives them in different places.
# Assays:
# [1] = system: Bacillus subtilis PCI 219; experiment: Antimicrobial spectrum, MIC (Bouillon agar); format: cell-based; settings: PCI219, read-out: Minimum Inhibitory Concentration
# From the text: (§1) The biological properties of C-19393 E5 are as follows.
# [2] = system: Staphylococcus aureus 209P; experiment: Antimicrobial spectrum, MIC (Bouillon agar); format: cell-based; settings: read-out: Minimum Inhibitory Concentration
# From the text: as §1
# [3] = system: Salmonella typhimurium IFO 12529; experiment: Antimicrobial spectrum, MIC (Bouillon agar); format: cell-based; settings: Salmonella enterica, read-out: Minimum Inhibitory Concentration
# From the text: as §1
# [4] = system: Pseudomonas aeruginosa IFO 3080; experiment: Antimicrobial spectrum, MIC (Bouillon agar); format: cell-based; settings: IFO3080, read-out: Minimum Inhibitory Concentration
# From the text: as §1
# [5] = system: Serratia marcescens IFO 12648; experiment: Antimicrobial spectrum, MIC (Bouillon agar); format: cell-based; settings: IFO12648, read-out: Minimum Inhibitory Concentration
# From the text: as §1
# [6] = system: Alcaligenes faecalis IFO 13111; experiment: Antimicrobial spectrum, MIC (Bouillon agar); format: cell-based; settings: IFO13111, read-out: Minimum Inhibitory Concentration
# From the text: as §1
# [7] = system: Klebsiella pneumoniae IFO 3317; experiment: Antimicrobial spectrum, MIC (Bouillon agar); format: cell-based; settings: IFO3317, read-out: Minimum Inhibitory Concentration
# From the text: as §1
# [8] = system: Comamonas terrigena IFO 13299; experiment: Antimicrobial spectrum, MIC (Bouillon agar); format: cell-based; settings: IFO13299, read-out: Minimum Inhibitory Concentration
# From the text: as §1
# [9] = system: Proteus mirabilis ATCC 21100; experiment: Antimicrobial spectrum, MIC (Bouillon agar); format: cell-based; settings: ATCC21100, read-out: Minimum Inhibitory Concentration
# From the text: as §1
# Escherichia coli NIHJ = experiment: Antimicrobial spectrum, MIC (Bouillon agar); format: cell-based; settings: read-out: Minimum Inhibitory Concentration
# From the text: as §1
# [10] = system: Proteus vulgaris IFO 3988; experiment: Antimicrobial spectrum, MIC (Bouillon agar); format: cell-based; settings: IFO3988, read-out: Minimum Inhibitory Concentration
# From the text: as §1
# Sarcina lutea IFO 3232 = experiment: Antimicrobial spectrum, MIC (Bouillon agar); format: cell-based; settings: Micrococcus luteus, IFO3232, read-out: Minimum Inhibitory Concentration
# From the text: as §1
# Solubility = format: physicochemical
# [11] = system: gram-positive and gram-negative bacteria; experiment: Antibacterial activity (summary in words); format: cell-based
# From the text: as §1
# [12] = Stability of aqueous solution; format: physicochemical; settings: neutral pH region
# C-19393 strain [13] = experiment: Growth on minimal medium containing compound (Table 4); format: cell-based, Streptomyces griseus subsp. cryophilus; design: key to the marks not given beside the values; settings: 28° C., 4 days
# Experimental: (§2) The 20 plates were selected from among those cultivated with about 20-100 colonies per plate. These colonies were inoculated by the replicate method onto a minimal medium (composition: 10 g of glycerol, 1 g of L-asparagine,1 g of dipotassium phosphate, 0.2 g of magnesium sulfate, 20 g of agar and distilled water; pH 7.1) and a screening medium A (the minimal medium supplemented with 50 mg/l of L-cysteine) and each of the media was incubated at 28° C. for 3 days. Another 20 plates were selected from among those cultivated with about 20-100 colonies per plate. These colonies were replicated on a minimal medium (the same as said composition) and a screening medium B (the minimal medium supplemented with 50 mg/l of sodium thiosulfate) and each of the media was incubated at 28° C. for 3 days. The strains thus obtained were incubated on minimal media containing sodium thiosulfate, L-cysteine or L-methionine in various concentrations at 28° C. for 4 days.
# K-101 strain = experiment: as above; format: cell-based, Streptomyces griseus subsp. cryophilus; settings: 28° C., 4 days
# Experimental: as §2
# K-4 strain = experiment: as above; format: cell-based, Streptomyces griseus subsp. cryophilus; settings: 28° C., 4 days
# Experimental: as §2
# C-19393 strain [14] = experiment: Growth on minimal medium containing compound (Table 5); format: cell-based, Streptomyces griseus subsp. cryophilus; settings: 28° C., 4 days
# Experimental: (§3) SR-135 and C-19393 strains were incubated on a minimal medium containing sodium thiosulfate, L-cysteine or L-methionine at 28° C. for 4 days.
# SR-135 strain [15] = experiment: as above; format: cell-based, Streptomyces griseus subsp. cryophilus; settings: 28° C., 4 days
# Experimental: as §3
# C-19393 strain [16] = settings: 28° C., 7 days
# SR-135 strain [17] = settings: 28° C., 7 days
# C-19393 strain [18] = experiment: microbe, parasite or virus in culture; settings: Streptomyces griseus, 168 h, read-out: Concentration at which growth was inhibited
Structure (SMILES),Growth (C-19393 strain [13]; 3.125 mg/ml (so in the source)),Growth (C-19393 strain [13]; 6.25 mg/ml (so in the source)),Growth (C-19393 strain [13]; 12.5 mg/ml (so in the source)),Growth (C-19393 strain [13]; 25 mg/ml (so in the source)),Growth (C-19393 strain [13]; 50 mg/ml (so in the source)),Growth (C-19393 strain [13]; 100 mg/ml (so in the source)),Growth (K-101 strain; 3.125 mg/l),Growth (K-101 strain; 6.25 mg/l),Growth (K-101 strain; 12.5 mg/l),Growth (K-101 strain; 25 mg/l),Growth (K-101 strain; 50 mg/l),Growth (K-101 strain; 100 mg/l),Growth (K-4 strain; 3.125 mg/ml (so in the source)),Growth (K-4 strain; 6.25 mg/ml (so in the source)),Growth (K-4 strain; 12.5 mg/ml (so in the source)),Growth (K-4 strain; 25 mg/ml (so in the source)),Growth (K-4 strain; 50 mg/ml (so in the source)),Growth (K-4 strain; 100 mg/ml (so in the source)),Growth (C-19393 strain [14]; 3.125 mg/l),Growth (C-19393 strain [14]; 6.25 mg/l),further results
CC(=O)N/C=C/[S+]([O-])C1=C(C(=O)O)N2C(=O)[C@@H]([C@H](C)O)[C@H]2C1 (stereo partly drawn) [C-19393 E5 sodium salt],,,,,,,,,,,,,,,,,,,,,MIC [1]: 0.78 µg/mL; MIC [2]: 0.78 µg/mL; MIC [3]: 0.78 µg/mL; MIC [4]: 6.25 µg/mL; MIC [5]: 6.25 µg/mL; MIC [6]: 1.56 µg/mL; MIC [7]: 6.25 µg/mL; MIC [8]: 0.78 µg/mL; MIC [9]: 3.13 µg/mL; MIC (Escherichia coli NIHJ): 0.78 µg/mL; MIC [10]: 1.56 µg/mL; MIC (Sarcina lutea IFO 3232): 0.2 µg/mL; Solubility (Solubility; in acetone): insoluble; Solubility (Solubility; in benzene): insoluble; Solubility (Solubility; in ethyl acetate): insoluble; Solubility (Solubility; in water): Readily soluble
CC(=O)N/C=C/[S+]([O-])C1=C(C(=O)O)N2C(=O)[C@@H]([C@H](C)O)[C@H]2C1 (stereo partly drawn) [C-19393 E5],,,,,,,,,,,,,,,,,,,,,Antibacterial/antimicrobial activity [11]: highly active against both gram-positive and gram-negative bacteria; also recorded: strong antimicrobial activity against gram-positive and gram-negative bacteria; Stability of aqueous solution [12]: stable in the neutral pH region
"N[C@@H](CS)C(=O)O [L-Cysteine, L-cysteine]",+++,+++,+++,+++,+++,+++,+,++,+++,+++,+++,+++,+,+,++,+++,+++,+++,+++,+++,Growth (C-19393 strain [14]; 12.5 mg/l): +++; Growth (C-19393 strain [14]; 25 mg/l): +++; Growth (C-19393 strain [14]; 50 mg/l): +++; Growth (C-19393 strain [14]; 100 mg/l): +++; Growth (SR-135 strain [15]; 3.125 mg/l): ++; Growth (SR-135 strain [15]; 6.25 mg/l): +++; Growth (SR-135 strain [15]; 12.5 mg/l): +++; Growth (SR-135 strain [15]; 25 mg/l): +++; Growth (SR-135 strain [15]; 50 mg/l): +++; Growth (SR-135 strain [15]; 100 mg/l): +++
"CSCC[C@H](N)C(=O)O [L-Methionine, L-methionine]",+++,+++,+++,+++,+++,+++,+,++,+++,+++,+++,+++,+,++,++,+++,+++,+++,+++,+++,Growth (C-19393 strain [14]; 12.5 mg/l): +++; Growth (C-19393 strain [14]; 25 mg/l): +++; Growth (C-19393 strain [14]; 50 mg/l): ++ +; Growth (C-19393 strain [14]; 100 mg/l): +++; Growth (SR-135 strain [15]; 3.125 mg/l): ++; Growth (SR-135 strain [15]; 6.25 mg/l): +++; Growth (SR-135 strain [15]; 12.5 mg/l): +++; Growth (SR-135 strain [15]; 25 mg/l): +++; Growth (SR-135 strain [15]; 50 mg/l): +++; Growth (SR-135 strain [15]; 100 mg/l): +++
"O=[Se](=O)(O)O [Sodium selenate, sodium selenate]",,,,,,,,,,,,,,,,,,,,,Growth (C-19393 strain [16]; 62.5 mg/l): +++; Growth (C-19393 strain [16]; 125 mg/l): ++; Growth (C-19393 strain [16]; 250 mg/l): ±; Growth (C-19393 strain [16]; 1000 mg/l): -; Growth (C-19393 strain [16]; 2000 mg/l): -; Growth (SR-135 strain [17]; 62.5 mg/l): ++; Growth (SR-135 strain [17]; 125 mg/l): ++; Growth (SR-135 strain [17]; 250 mg/l): ++; Growth (SR-135 strain [17]; 500 mg/l): ++; Growth (SR-135 strain [17]; 1000 mg/l): ++; Growth (SR-135 strain [17]; 2000 mg/l): +; MIC (C-19393 strain [18]): ≥ 250 µg/mL
"O=S([O-])([O-])=S.[Na+].[Na+] [Sodium thiosulfate, sodium thiosulfate]",+++,+++,+++,+++,+++,+++,±,±,±,+,++,+++,+,+,++,+++,+++,+++,+++,+++,Growth (C-19393 strain [14]; 12.5 mg/l): +++; Growth (C-19393 strain [14]; 25 mg/l): +++; Growth (C-19393 strain [14]; 50 mg/l): +++; Growth (C-19393 strain [14]; 100 mg/l): +++; Growth (SR-135 strain [15]; 3.125 mg/l): +; Growth (SR-135 strain [15]; 6.25 mg/l): ++; Growth (SR-135 strain [15]; 12.5 mg/l): ++; Growth (SR-135 strain [15]; 25 mg/l): +++; Growth (SR-135 strain [15]; 50 mg/l): +++; Growth (SR-135 strain [15]; 100 mg/l): +++
